Laboratory results reported in patent publication US20190100534A1, “Cephem Compounds with Latent Reactive Groups” (Gladius Pharmaceuticals, Inc., priority 2017, published 2019).

Tests used:
[1] = test system: KOXY (Klebsiella oxytoca); test: MIC determination; format: cell-based; conditions: Klebsiella oxytoca, CAMH broth, 20 μM Apo-Transferrin, 37° C., 18 hours, read-out: Minimum Inhibitory Concentrations, KOXY
Procedure, shortened: (§1)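 Broth microdilution in CAMH + 20 μM apo-transferrin; inoculum 0.5 McFarland, used within 30 min. Compound 64→0.125 μg/mL, twofold steps. 37 °C, 18 h. MIC = lowest clear-well concentration.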

[2] = test system: KP (Klebsiella pneumoniae); test: MIC determination; format: cell-based; conditions: 20 μM Apo-Transferrin, 37° C., 18 hours
Procedure, shortened: as §1

[3] = test system: A. baumannii (JMI OXA-58); test: MIC determination; format: cell-based, Acinetobacter baumannii; conditions: Acinetobacter baumannii, class D carbapenemase producer, CAMH broth, 20 μM Apo-Transferrin, 37° C., 18 hours, read-out: Minimum Inhibitory Concentrations, A. baumannii (JMI OXA-58)
Protocol: (§2) Sterile technique was used throughout these experiments. Suspensions of organisms were removed from storage (−80° C.) and partially thawed. Partially thawed organisms (1 μL) were inoculated into 3 mL sterile LB Broth in a sterile culture tube and capped, then cultured at 37° C. with shaking for 4-5 hours until the optical density at 600 nm (OD600) was greater than 0.1 on a single beam spectrophotometer.
(§3) The concentration of organisms was adjusted to 0.08-0.1 OD600 (0.5 McFarland units) by dilution with sterile cation-adjusted Meuller-Hinton (CAMH) broth. The suspensions were used within 30 minutes of preparation.
(§4) A stock solution was made of each test compound by measuring 6.4 mg of the compound on an analytical balance and dissolving it in DMSO (1 mL) to get a transparent solution. The solutions were stored at −20° C. and thawed prior to use.
(§5) Sterile CAMH broth (200 μL) containing 20 μM Apo-Transferrin was pipetted into the first row of 8 columns of a sterile, round-bottomed, transparent, 96-well microplate using an 8-channel pipette equipped with sterile tips. One hundred μL was pipetted into the wells of the remaining 11 rows.
(§6) With an 8-channel pipette equipped with sterile tips, 100 μL of the first row solution was transferred to the second row and mixed. The process was repeated for the second to third rows and continued through row 11. One hundred μL from row 11 was removed and discarded so that all 12 rows contained 100 μL. Row 12 contained no compound and rows 1-11 contained 64, 32, 16, 8, 4, 2, 1, 0.5, 0.25, 0.125, […] of a given compound.
(§7) Inoculant suspensions (0.5 μL) were added to the 12 wells of each column. The plates were then covered and incubated at 37° C. overnight for 18 hours.
(§8) For each organism the MIC was determined by identifying the transparent well with the lowest test compound concentration.

A. baumannii = test: MIC determination; format: cell-based, Acinetobacter baumannii; conditions: for MIC: Acinetobacter baumannii, A. baumannii, CAMH broth, 20 μM Apo-Transferrin, 37° C., 18 hours, read-out: Minimum Inhibitory Concentrations, A. baumannii; for MICs for an Acinetobacter baumannii strain, in words: review of Table 2
Protocol: as §2, §3, §4, §5, §6, §7, §8

KP (ATCC KPC-3) = test: MIC determination; format: cell-based, Klebsiella pneumoniae; conditions: CAMH broth, 20 μM Apo-Transferrin, 37° C., 18 hours
Protocol: as §2, §3, §4, §5, §6, §7, §8

KP (GJ 5659 TEM-26) = test: MIC determination; format: cell-based, Klebsiella pneumoniae; conditions: CAMH broth, 20 μM Apo-Transferrin, 37° C., 18 hours
Protocol: as §2, §3, §4, §5, §6, §7, §8

KP (RR -1) = test: MIC determination; format: cell-based, Klebsiella pneumoniae; conditions: CAMH broth, 20 μM Apo-Transferrin, 37° C., 18 hours
Protocol: as §2, §3, §4, §5, §6, §7, §8

KP (URMC-1) = test: MIC determination; format: cell-based, Klebsiella pneumoniae; conditions: CAMH broth, 20 μM Apo-Transferrin, 37° C., 18 hours
Protocol: as §2, §3, §4, §5, §6, §7, §8

KP (URMC-2) = test: MIC determination; format: cell-based, Klebsiella pneumoniae; conditions: CAMH broth, 20 μM Apo-Transferrin, 37° C., 18 hours
Protocol: as §2, §3, §4, §5, §6, §7, §8

KP (URMC-3) = test: MIC determination; format: cell-based, Klebsiella pneumoniae; conditions: CAMH broth, 20 μM Apo-Transferrin, 37° C., 18 hours
Protocol: as §2, §3, §4, §5, §6, §7, §8

KP(GJ 5934 TEM-26) = test: MIC determination; format: cell-based, Klebsiella pneumoniae; conditions: CAMH broth, 20 μM Apo-Transferrin, 37° C., 18 hours
Protocol: as §2, §3, §4, §5, §6, §7, §8

KP(JMI KPC-2) = test: MIC determination; format: cell-based, Klebsiella pneumoniae; conditions: CAMH broth, 20 μM Apo-Transferrin, 37° C., 18 hours
Protocol: as §2, §3, §4, §5, §6, §7, §8

KP(ATCC TEM-10/TEM-12) = format: cell-based, Klebsiella pneumoniae; conditions: CAMH broth, 20 μM Apo-Transferrin, 37° C., 18 hours
Protocol: as §2, §3, §4, §5, §6, §7, §8

EA (URMC -3) = test: MIC determination; format: cell-based; conditions: CAMH broth, 20 μM Apo-Transferrin, 37° C., 18 hours
Protocol: as §2, §3, §4, §5
To each well of the first row was pipetted 2.0 μL of the 6.4 mg/mL stock test compound stock solution to give 1:100 dilutions and a final concentration of 64 μg/mL and mixed.
as §6, §7, §8

E. coli J53 Alone = test: MIC determination, isogenic E. coli strains; format: cell-based; conditions: for MIC: Escherichia coli, J53ALONE, 18 h, read-out: Mimimum Inhibitory Concentrations, J53 Alone; for Mimimum Inhibitory Concentrations, J53 Alone: Table 4-2, CAMH broth, 20 μM Apo-Transferrin, 37° C., 18 hours
Procedure, shortened: (§9)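 MIC read as the lowest compound level giving a transparent well after 18 h at 37° C. Strains: parent E. coli J53 and isogenic transformants expressing plasmid-borne (pBC-SK(+)) beta-lactamases such as DHA-1; inoculum 0.5 McFarland; CAMH broth plus 20 μM apo-transferrin; compound 64 μg/mL downward, 2-fold dilutions.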

[4] = test system: Isogenic E. coli J58 strain carrying DHA-1; test: MIC determination, isogenic E. coli strains; format: cell-based; conditions: Escherichia coli, 18 h, read-out: Mimimum Inhibitory Concentrations, DHA-1
Procedure, shortened: as §9

[5] = test system: Isogenic E. coli J58 strain carrying IMP-1; test: MIC determination, isogenic E. coli strains; format: cell-based
Procedure, shortened: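 Broth microdilution in cation-adjusted Mueller-Hinton broth with 20 μM apo-transferrin, compound serially diluted two-fold from 64 μg/mL, against E. coli J53 carrying plasmid-borne IMP-1. Inoculum adjusted to 0.5 McFarland; plates incubated 18 h at 37° C. MIC taken as lowest concentration giving a clear well.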

EC (Escherichia coli) = test: MIC determination; format: cell-based; conditions: 20 μM Apo-Transferrin, 37° C., 18 hours; for MIC: Escherichia coli, first EC column of Table 3-1, CAMH broth, read-out: Minimum Inhibitory Concentrations, EC; for Minimum Inhibitory Concentrations, EC: Table 3-1, CAMH broth
Procedure, shortened: as §1

[6] = test system: Isogenic E. coli J58 strain carrying CTX-M-14; test: MIC determination, isogenic E. coli strains; format: cell-based; conditions: Escherichia coli, 18 h, read-out: Mimimum Inhibitory Concentrations, CTX-M-14
Procedure, shortened: (§10)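 Isogenic E. coli J53 carrying plasmid-encoded CTX-M-14 or CTX-M-15 (ampicillin-selected), standardized to 0.08-0.1 OD600, incubated overnight (18 h, 37° C.) in CAMH broth plus 20 μM apo-transferrin over 2-fold compound dilutions starting at 64 μg/mL. Lowest concentration with no visible growth recorded as MIC.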

[7] = test system: Isogenic E. coli J58 strain carrying CTX-M-15; test: MIC determination, isogenic E. coli strains; format: cell-based; conditions: Escherichia coli, 18 h, read-out: Mimimum Inhibitory Concentrations, CTX-M-15
Procedure, shortened: as §10

[8] = first KP column of Table 3-1, CAMH broth
[9] = second KP column of Table 3-1, CAMH broth

SMILES | MIC [1] [µg/mL] | Minimum Inhibitory Concentrations, KP [2, 8] [microgram/mL] | Minimum Inhibitory Concentrations, KP [2, 9] [microgram/mL] | MIC [3] [µg/mL] | MIC (A. baumannii) [µg/mL] | Minimum Inhibitory Concentrations, KP (ATCC KPC-3) (KP (ATCC KPC-3)) [microgram/mL] | Minimum Inhibitory Concentrations, KP (GJ 5659 TEM-26) (KP (GJ 5659 TEM-26)) [microgram/mL] | Mimimum Inhibitory Concentrations, KP (RR -1) (KP (RR -1)) [microgram/mL] | Minimum Inhibitory Concentrations, KP (URMC-1) (KP (URMC-1)) [microgram/mL] | Minimum Inhibitory Concentrations, KP (URMC-2) (KP (URMC-2)) [microgram/mL] | Minimum Inhibitory Concentrations, KP (URMC-3) (KP (URMC-3)) [microgram/mL] | Minimum Inhibitory Concentrations, KP(GJ 5934 TEM-26) (KP(GJ 5934 TEM-26)) [microgram/mL] | Minimum Inhibitory Concentrations, KP(JMI KPC-2) (KP(JMI KPC-2)) [microgram/mL] | Minimum Inhibitory Concentrations, KP(ATCC TEM-10/TEM-12) (KP(ATCC TEM-10/TEM-12)) [microgram/mL] | Mimimum Inhibitory Concentrations, EA (URMC -3) (EA (URMC -3)) [microgram/mL] | MIC (E. coli J53 Alone) [µg/mL] | Mimimum Inhibitory Concentrations, J53 Alone (E. coli J53 Alone) [microgram/mL] | MIC [4] [µg/mL] | MIC (EC (Escherichia coli)) [µg/mL] | Minimum Inhibitory Concentrations, EC (EC (Escherichia coli)) [microgram/mL] | other results
CC(C)(O/N=C(\C(=O)N[C@@H]1C(=O)N2C(C(=O)O)=C(C=Cc3ccc(C[N+]4(C)CCc5c(Cl)c(O)c(O)c(Cl)c5C4)cc3)CS[C@H]12)c1csc(N)n1)C(=O)O (mixture of isomers) [Compound 429, 2-(4-((E/Z)-2-((6R,7R)-7-((Z)-2-(2-aminothiazol-4-yl)-2-(((2-carboxypropan-2-yl)oxy)imino)acetamido)-2-carboxy-8-oxo-5-thia-1-azabicyclo[4.2.0]oct-2-en-3-yl)vinyl)benzyl)-5,8 dichloro-6,7-dihydroxy-2-methyl-1,2,3,4-tetrahydroisoquinolin-2-ium] | 0.5 | 1 | 1 | > 64 | 2 | >64 | 0.5 | 0.25 | ≤0.06 | ≤0.06 | ≤0.06 | 0.5 | 16 | 4 | 2 | ≤ 0.06 | ≤0.06 | 0.25 |  |  | MIC ([5]; Escherichia coli, 18 h, read-out: Mimimum Inhibitory Concentrations, IMP-1): ≤ 0.06 µg/mL
CC(C)(O/N=C(\C(=O)N[C@@H]1C(=O)N2C(C(=O)O)=C(C=Cc3ccc(C[N+]4(C)Cc5cc(O)c(O)c(Cl)c5C4)cc3)CS[C@H]12)c1csc(N)n1)C(=O)O (mixture of isomers) [Compound 432, 2-(4-((E/Z)-2-((6R,7R)-7-((Z)-2-(2-aminothiazol-4-yl)-2-(((2-carboxypropan-2-yl)oxy)imino)acetamido)-2-carboxy-8-oxo-5-thia-1-azabicyclo[4.2.0]oct-2-en-3-yl)vinyl)benzyl)-4-chloro-5,6-dihydroxy-2-methylisoindolin-2-ium] | 0.5 | 1 | 1 | > 64 | 1 | >64 | 1 | 0.25 | 0.13 | ≤0.06 | ≤0.06 | 0.13 | 64 | 8 | 0.5 | ≤ 0.06 | ≤0.06 | ≤ 0.06 | 0.25 | 0.25 | MICs for an Acinetobacter baumannii strain, in words (A. baumannii): low microgram/mL MICs; MIC [6]: ≤ 0.06 µg/mL; MIC [7]: ≤ 0.06 µg/mL; MICs for an E. coli strain carrying the gene for carbapenemase IMP-1, in words ([5]; review of Tables 4-1 and 4-2): low microgram/mL MICs
CC(C)(O/N=C(\C(=O)N[C@@H]1C(=O)N2C(C(=O)O)=C(C=Cc3ccc(C[N+]4(C)Cc5c(Cl)c(O)c(O)c(Cl)c5C4)cc3)CS[C@H]12)c1csc(N)n1)C(=O)O (mixture of isomers) [Compound 431, 2-(4-((E/Z)-2-((6R,7R)-7-((Z)-2-(2-aminothiazol-4-yl)-2-(((2-carboxypropan-2-yl)oxy)imino)acetamido)-2-carboxy-8-oxo-5-thia-1-azabicyclo[4.2.0]oct-2-en-3-yl)vinyl)benzyl)-4,7-dichloro-5,6-dihydroxy-2-methylisoindolin-2-ium] | 0.13 | 0.13 | 0.13 | > 64 | 1 | >64 | 0.5 | 0.13 | 0.25 | 0.13 | ≤0.06 | 0.5 | 8 | 16 | 1 | ≤ 0.06 | ≤0.06 | 1 | 0.5 | 0.5 | MICs for an Acinetobacter baumannii strain, in words (A. baumannii): low microgram/mL MICs; MIC [6]: 0.13 µg/mL; MIC [7]: 0.13 µg/mL
